Values quoted from earlier work in US5935597A, “Drug delivery devices and methods for treatment of viral and microbial infections and wasting syndromes” (Cryopreservation Technologies CC, priority 1995, dated 1999).

Columns and labels:
[1] = test system: Human Herpes Virus 6 (HHV-6); conditions: certain cultured cell lines; cited from earlier work
human cancer = conditions: cited from earlier work
HIV [2] = conditions: certain cultured cell lines; cited from earlier work
human cancer xenografts = conditions: intraperitoneal injection, nude mice; cited from earlier work
HIV [3] = conditions: cited from earlier work
[4] = appetite enhancers, wasting syndromes; cited from earlier work
mouse sarcoma allograft = conditions: in vivo; cited from earlier work
HIV-1 = conditions: cells infected with HIV-1 isolates, in vitro; cited from earlier work
HIV-2 = conditions: cells infected with HIV-2 isolates, in vitro; cited from earlier work

For `C[S+](C)[O-]` [DMSO, dimethylsulfoxide], the “in vitro replication of HHV-6” value [1] is given as “inhibit in vitro replication of HIV and Human Herpes Virus 6 (HHV-6)”, the objective response (human cancer; human cancer patients) is given as “no objective response” and the “in vitro replication of HIV” value (HIV [2]) is given as “inhibit in vitro replication of HIV”.

In the case of `CNC=O` [NMF, N-methylformamide], the anticancer activity (human cancer; oral, human patients with cancer of the head and neck (Planting et al.)) is given as “only minimal activity”, the hepatotoxicity and response (human cancer; oral, human patients with cancer of the head and neck (Vogel et al.)) is given as “hepatotoxicity with no beneficial response” and the “growth of human cancer xenografts” value (human cancer xenografts) is given as “slow the growth of certain human cancer xenografts”.

For `Cc1cn([C@H]2C=C[C@@H](CO)O2)c(=O)[nH]c1=O` [d4T, stavudine], the anti-HIV activity (HIV [3]) is listed as “active against HIV”.

For `CCCCCc1cc(O)c2c(c1)OC(C)(C)[C@@H]1CCC(C)=C[C@@H]21` [dronabinol], the weight gain [4] is given as “tended to gain only fat and not overall body mass”.

In the case of `NC=O` [formamide], the toxicity (mouse sarcoma allograft) is listed as “toxic side-effects”.

In the case of `CC(=O)O[C@]1(C(C)=O)CC[C@H]2[C@@H]3C=C(C)C4=CC(=O)CC[C@]4(C)[C@H]3CC[C@@]21C` [megestrol acetate], the weight gain [4] is given as “tended to gain only fat and not overall body mass”.

B1: RANTES: chemokine secreted by CD8+ T cells (protein, UniProt P13501 24-91, looked up)
C-C motif chemokine 5: SPYSSDTTPCCFAYIARPLPRAHIKEYFYTSGKCSNPAVVFVTRKNRQVCANPEKKWVREYINSLEMS
For B1, the “HIV-1 p24 antigen production” value (HIV-1) is given as “suppress HIV-1 p24 antigen production” and the “HIV-1 p24 antigen production” value (HIV-2) is given as “suppress HIV-1 p24 antigen production”.

B2: MIP-1α: chemokine secreted by CD8+ T cells (protein, UniProt P10147 24-92, looked up)
C-C motif chemokine 3: SLAADTPTACCFSYTSRQIPQNFIADYFETSSQCSKPGVIFLTKRSRQVCADPSEEWVQKYVSDLELSA
In the case of B2, the “HIV-1 p24 antigen production” value (HIV-1) is given as “suppress HIV-1 p24 antigen production” and the “HIV-1 p24 antigen production” value (HIV-2) is given as “suppress HIV-1 p24 antigen production”.

B3: MIP-1β: chemokine secreted by CD8+ T cells (protein, UniProt P13236 24-92, looked up)
C-C motif chemokine 4: APMGSDPPTACCFSYTARKLPRNFVVDYYETSSLCSQPAVVFQTKRSKQVCADPSESWVQEYVYDLELN
modifications: ends and bridges not checked
notes: chemokine secreted by CD8+ T cells
In the case of B3, the “HIV-1 p24 antigen production” value (HIV-1) is given as “suppress HIV-1 p24 antigen production” and the “HIV-1 p24 antigen production” value (HIV-2) is given as “suppress HIV-1 p24 antigen production”.
